Test results: ChEMBL document CHEMBL3124800, “HTS followed by NMR based counterscreening. Discovery and optimization of pyrimidones as reversible and competitive inhibitors of xanthine oxidase” (Bioorg Med Chem Lett, 2014); call rule not given here
≈ marks a conversion by molar mass, not a printed value.

How the values were obtained:
[1] = biological target: Xanthine dehydrogenase/oxidase (Homo sapiens, UniProt P47989)
[2] = Solubility of the compound in phosphate buffer at pH 7.4
[3] = Intrinsic clearance in human liver microsomes; type: ADME; settings: read-out: CLH
[4] = Apparent permeability across apical side to basolateral side in human Caco2 cells; settings: Caco-2
[5] = Apparent permeability across basolateral side to apical side in human Caco2 cells; settings: Caco-2
[6] = Half life in Han Wistar rat at 1 umol/kg, iv; type: ADME, organism-based; settings: in vivo
[7] = Clearance in Han Wistar rat at 1 umol/kg, iv; type: ADME, organism-based; settings: in vivo
[8] = tested on: Rattus norvegicus; experiment: Volume of distribution at steady state in Han Wistar rat at […]; type: ADME, organism-based; settings: in vivo
[9] = Oral bioavailability in Han Wistar rat at 6 umol/kg; type: ADME, organism-based; settings: in vivo
[10] = Cmax in Han Wistar rat at 6 umol/kg, po; type: ADME, organism-based; set-up: dose 6 umol/kg, route oral; settings: in vivo
[11] = Plasma concentration in potassium oxonate-induced hyperuricemic Sprague-Dawley rat model at 10 mg/kg, po measured after 2 hrs; type: ADME, organism-based; set-up: dose 10 mg/kg, route oral
[12] = tested on: Rattus norvegicus; experiment: Antihyperuricemic activity in potassium oxonate-induced hyperuricemic Sprague-Dawley rat model assessed as decrease of uric acid level in serum at 10 mg/kg, po measured after 2 hrs relative to vehicle-treated control; type: functional; set-up: scale not given: the % may be the effect or the level left
[13] = tested on: Rattus norvegicus; experiment: Antihyperuricemic activity in potassium oxonate-induced hyperuricemic Sprague-Dawley rat model assessed as decrease of uric acid level in serum at 10 mg/kg, po measured after 1 hr relative to vehicle-treated control; type: functional; set-up: scale not given: the % may be the effect or the level left
[14] = biological target: Xanthine dehydrogenase/oxidase (Rattus norvegicus, UniProt P22985); experiment: Inhibition of rat xanthine oxidase
[15] = tested on: Hepatocyte; experiment: Intrinsic clearance in human hepatocytes assessed per million cells; type: ADME, cell-based
[16] = biological target: T1, Xanthine dehydrogenase/oxidase (Bos taurus, UniProt P80457); experiment: Inhibition of bovine xanthine oxidase
[17] = biological target: T1, Xanthine dehydrogenase/oxidase; experiment: Reversible inhibition of bovine xanthine oxidase; settings: cattle
[18] = biological target: T1, Xanthine dehydrogenase/oxidase; experiment: Competitive inhibition of bovine xanthine oxidase
[19] = tested on: Rattus norvegicus; experiment: Antihyperuricemic activity in potassium oxonate-induced hyperuricemic Sprague-Dawley rat model assessed as decrease of uric acid level in serum at 30 mg/kg, po measured after 1 hr relative to vehicle-treated control; type: functional; set-up: scale not given: the % may be the effect or the level left
[20] = tested on: Plasma; experiment: Antihyperuricemic activity in potassium oxonate-induced hyperuricemic Sprague-Dawley rat model assessed as decrease of uric acid level in serum at 30 mg/kg, po measured after 2 hrs relative to vehicle-treated control; type: functional; set-up: scale not given: the % may be the effect or the level left

Chain of Xanthine dehydrogenase/oxidase (Homo sapiens, UniProt P47989) (P47989 whole entry): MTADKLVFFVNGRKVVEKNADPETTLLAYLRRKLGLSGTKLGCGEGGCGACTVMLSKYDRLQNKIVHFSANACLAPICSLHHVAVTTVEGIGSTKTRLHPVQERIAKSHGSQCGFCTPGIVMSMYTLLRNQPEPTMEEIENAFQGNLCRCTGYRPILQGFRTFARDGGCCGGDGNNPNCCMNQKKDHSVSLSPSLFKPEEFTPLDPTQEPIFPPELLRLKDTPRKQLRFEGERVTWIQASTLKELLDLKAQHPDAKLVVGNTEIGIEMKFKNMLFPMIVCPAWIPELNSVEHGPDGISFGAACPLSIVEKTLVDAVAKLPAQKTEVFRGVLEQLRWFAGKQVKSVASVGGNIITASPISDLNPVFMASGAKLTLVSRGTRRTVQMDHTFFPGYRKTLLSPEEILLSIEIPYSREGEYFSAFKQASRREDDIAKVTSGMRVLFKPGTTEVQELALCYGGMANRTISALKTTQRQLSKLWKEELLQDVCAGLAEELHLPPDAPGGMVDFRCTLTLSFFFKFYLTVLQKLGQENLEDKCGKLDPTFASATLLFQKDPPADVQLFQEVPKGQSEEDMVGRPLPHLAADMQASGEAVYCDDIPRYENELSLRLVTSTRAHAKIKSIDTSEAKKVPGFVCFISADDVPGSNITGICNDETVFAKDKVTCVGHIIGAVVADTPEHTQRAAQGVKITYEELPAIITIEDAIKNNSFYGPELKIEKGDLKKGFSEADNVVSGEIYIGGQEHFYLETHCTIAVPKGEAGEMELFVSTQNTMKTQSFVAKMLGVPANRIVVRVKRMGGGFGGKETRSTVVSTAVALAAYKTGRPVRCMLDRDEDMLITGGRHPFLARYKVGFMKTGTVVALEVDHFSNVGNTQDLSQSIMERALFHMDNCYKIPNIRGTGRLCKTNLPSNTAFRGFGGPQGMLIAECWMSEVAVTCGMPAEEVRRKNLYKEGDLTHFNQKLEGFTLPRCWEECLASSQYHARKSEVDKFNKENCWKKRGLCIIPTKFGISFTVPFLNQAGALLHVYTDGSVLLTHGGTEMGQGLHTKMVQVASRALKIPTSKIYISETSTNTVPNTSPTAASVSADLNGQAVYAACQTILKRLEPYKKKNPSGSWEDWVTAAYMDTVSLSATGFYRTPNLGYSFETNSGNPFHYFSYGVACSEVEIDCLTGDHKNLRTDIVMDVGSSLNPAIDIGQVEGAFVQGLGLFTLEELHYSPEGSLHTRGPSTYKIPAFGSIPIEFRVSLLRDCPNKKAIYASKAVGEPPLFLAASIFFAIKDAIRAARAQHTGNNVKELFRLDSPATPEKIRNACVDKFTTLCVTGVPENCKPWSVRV
T1 sequence (P80457 whole entry): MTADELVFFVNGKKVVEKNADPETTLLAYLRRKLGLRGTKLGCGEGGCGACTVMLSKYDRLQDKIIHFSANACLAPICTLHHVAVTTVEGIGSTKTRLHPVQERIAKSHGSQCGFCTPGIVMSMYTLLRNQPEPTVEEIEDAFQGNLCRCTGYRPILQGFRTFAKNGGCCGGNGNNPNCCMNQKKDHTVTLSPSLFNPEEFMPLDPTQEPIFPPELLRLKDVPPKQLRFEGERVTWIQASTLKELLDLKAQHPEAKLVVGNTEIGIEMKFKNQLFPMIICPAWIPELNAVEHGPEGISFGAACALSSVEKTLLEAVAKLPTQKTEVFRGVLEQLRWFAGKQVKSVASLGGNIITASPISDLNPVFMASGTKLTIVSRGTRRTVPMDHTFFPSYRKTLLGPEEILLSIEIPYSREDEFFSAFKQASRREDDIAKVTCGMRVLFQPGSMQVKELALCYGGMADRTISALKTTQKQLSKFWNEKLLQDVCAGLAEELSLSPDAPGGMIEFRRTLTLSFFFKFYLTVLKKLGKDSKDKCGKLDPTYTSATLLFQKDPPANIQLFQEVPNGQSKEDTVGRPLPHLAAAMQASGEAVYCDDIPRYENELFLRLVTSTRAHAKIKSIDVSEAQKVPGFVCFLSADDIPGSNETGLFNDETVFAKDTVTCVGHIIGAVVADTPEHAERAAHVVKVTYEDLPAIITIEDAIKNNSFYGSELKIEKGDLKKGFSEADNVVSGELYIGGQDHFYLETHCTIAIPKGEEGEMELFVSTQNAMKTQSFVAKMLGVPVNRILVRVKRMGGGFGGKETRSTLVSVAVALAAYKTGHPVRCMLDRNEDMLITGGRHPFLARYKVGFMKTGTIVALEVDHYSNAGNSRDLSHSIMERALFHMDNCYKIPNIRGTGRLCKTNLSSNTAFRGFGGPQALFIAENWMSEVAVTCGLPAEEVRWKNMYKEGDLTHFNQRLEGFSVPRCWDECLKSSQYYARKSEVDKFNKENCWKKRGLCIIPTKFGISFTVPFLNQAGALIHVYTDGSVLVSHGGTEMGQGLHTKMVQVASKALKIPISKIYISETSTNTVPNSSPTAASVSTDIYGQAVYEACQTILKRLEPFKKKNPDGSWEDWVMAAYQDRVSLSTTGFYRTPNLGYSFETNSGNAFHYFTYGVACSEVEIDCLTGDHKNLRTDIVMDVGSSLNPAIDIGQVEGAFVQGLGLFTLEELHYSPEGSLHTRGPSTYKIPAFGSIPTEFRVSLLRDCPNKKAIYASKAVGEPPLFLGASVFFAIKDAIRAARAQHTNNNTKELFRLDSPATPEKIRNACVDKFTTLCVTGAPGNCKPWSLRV
Chain of Xanthine dehydrogenase/oxidase (Rattus norvegicus, UniProt P22985) (P22985 whole entry): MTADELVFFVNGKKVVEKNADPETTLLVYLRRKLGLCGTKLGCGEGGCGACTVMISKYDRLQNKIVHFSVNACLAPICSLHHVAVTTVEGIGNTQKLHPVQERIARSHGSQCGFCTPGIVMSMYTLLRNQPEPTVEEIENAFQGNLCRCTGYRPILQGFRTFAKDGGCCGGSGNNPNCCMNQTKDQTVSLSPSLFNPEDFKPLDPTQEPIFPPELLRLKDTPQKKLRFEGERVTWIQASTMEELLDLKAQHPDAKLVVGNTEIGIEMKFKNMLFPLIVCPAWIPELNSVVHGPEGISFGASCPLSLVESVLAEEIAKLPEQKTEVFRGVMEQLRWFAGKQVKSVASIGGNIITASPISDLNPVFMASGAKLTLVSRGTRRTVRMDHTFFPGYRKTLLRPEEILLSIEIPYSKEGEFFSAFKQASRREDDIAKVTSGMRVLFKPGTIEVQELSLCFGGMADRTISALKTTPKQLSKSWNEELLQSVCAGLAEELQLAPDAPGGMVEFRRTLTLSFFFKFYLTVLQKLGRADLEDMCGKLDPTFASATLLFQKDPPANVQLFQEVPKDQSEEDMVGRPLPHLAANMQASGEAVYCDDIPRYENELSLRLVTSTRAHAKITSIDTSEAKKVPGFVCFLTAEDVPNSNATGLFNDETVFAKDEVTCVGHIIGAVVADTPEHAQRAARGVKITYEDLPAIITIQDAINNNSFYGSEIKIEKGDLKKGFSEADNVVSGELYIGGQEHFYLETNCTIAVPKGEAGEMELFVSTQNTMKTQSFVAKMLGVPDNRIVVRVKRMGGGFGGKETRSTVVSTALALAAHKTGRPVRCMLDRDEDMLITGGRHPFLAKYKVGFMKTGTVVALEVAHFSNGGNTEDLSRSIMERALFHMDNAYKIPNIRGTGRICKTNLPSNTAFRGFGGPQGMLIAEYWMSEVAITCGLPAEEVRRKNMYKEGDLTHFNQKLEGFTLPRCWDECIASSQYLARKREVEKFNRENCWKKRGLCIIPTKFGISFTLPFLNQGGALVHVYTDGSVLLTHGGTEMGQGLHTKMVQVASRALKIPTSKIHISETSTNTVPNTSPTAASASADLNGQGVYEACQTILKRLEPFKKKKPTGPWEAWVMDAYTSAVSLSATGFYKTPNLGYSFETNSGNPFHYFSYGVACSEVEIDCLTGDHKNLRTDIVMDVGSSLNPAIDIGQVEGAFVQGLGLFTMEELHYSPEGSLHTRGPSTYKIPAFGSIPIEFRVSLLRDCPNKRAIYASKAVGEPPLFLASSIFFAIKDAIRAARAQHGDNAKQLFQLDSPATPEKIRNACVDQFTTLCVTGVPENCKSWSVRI

| Structure (SMILES) | solubility [2] | microsomal CLint [3] | Papp A→B [4] | Papp B→A [5] | further results |
| --- | --- | --- | --- | --- | --- |
| COc1ccc(-c2cnc3nc[nH]c(=O)c3n2)cc1 | – | – | – | – | IC50 [1]: 15800 nM |
| CC(C)COc1ccc(-c2cc(=O)[nH]c(N)n2)cc1 | 23 µM (≈ 5.96 µg/mL) | 42 µL/min/mg | – | – | – |
| CC(C)COc1ccc(-c2cc(=O)[nH]c(N)n2)cc1C#N | 140 µM (≈ 39.8 µg/mL) | 7.9 µL/min/mg | – | – | – |
| N#Cc1cc(-c2nc(N)[nH]c(=O)c2Cl)ccc1OCC1CCOC1 (stereo unspecified) | 41 µM (≈ 14.2 µg/mL) | 3.4 µL/min/mg | 0.2 ×10⁻⁶ cm/s | 24 ×10⁻⁶ cm/s | – |
| Cc1cc(-c2nc(N)[nH]c(=O)c2Cl)cc(C#N)c1OCC1CCOC1 (stereo unspecified) | 83 µM (≈ 29.9 µg/mL) | 5.3 µL/min/mg | 2.1 ×10⁻⁶ cm/s | 35 ×10⁻⁶ cm/s | – |
| Nc1nc(-c2ccc(OCC3CCOC3)c(C(F)(F)F)c2)c(Cl)c(=O)[nH]1 (stereo unspecified) | 24 µM (≈ 9.35 µg/mL) | 7.5 µL/min/mg | 8.4 ×10⁻⁶ cm/s | 69 ×10⁻⁶ cm/s | half-life [6]: 10 h; clearance [7]: 15 mL/min/kg; Vdss [8]: 5.7 L/kg; bioavailability [9]: 33%; Cmax [10]: 270 nM |
| Nc1nc(-c2ccc(OCC3CCOC3)c(OC(F)(F)F)c2)c(Cl)c(=O)[nH]1 (stereo unspecified) | 45 µM (≈ 18.3 µg/mL) | 18 µL/min/mg | 6.4 ×10⁻⁶ cm/s | 74 ×10⁻⁶ cm/s | half-life [6]: 13.2 h; concentration at 2 h [11]: 370 nM; Activity [12]: 54%; clearance [7]: 35 mL/min/kg; Activity [13]: 55%; Vdss [8]: 13 L/kg; bioavailability [9]: 22%; Cmax [10]: 80 nM; IC50 [14]: 7.94 nM |
| Nc1nc(-c2cccc(C(F)(F)F)c2)cc(=O)[nH]1 | 36 µM (≈ 9.19 µg/mL) | – | – | – | – |
| Nc1nc(-c2cccc(OC(F)(F)F)c2)cc(=O)[nH]1 | 330 µM (≈ 89.5 µg/mL) | 3.2 µL/min/mg | – | – | – |
| Cc1cc(C#N)cc(-c2cc(=O)[nH]c(N)n2)c1 | 350 µM (≈ 79.2 µg/mL) | 1.2 µL/min/mg | – | – | – |
| N#Cc1cc(-c2cc(=O)[nH]c(N)n2)cc(C(F)(F)F)c1 | 430 µM (≈ 120 µg/mL) | 0.2 µL/min/mg | – | – | – |
| Nc1nc(-c2ccc(OCc3ccccc3)cc2)cc(=O)[nH]1 | < 1 µM | – | – | – | – |
| CC(C)(C)COc1ccc(-c2cc(=O)[nH]c(N)n2)cc1 | 3.1 µM (≈ 0.847 µg/mL) | 6.9 µL/min/mg | – | – | – |
| Nc1nc(-c2ccc(OCCCCO)cc2)cc(=O)[nH]1 | 95 µM (≈ 26.2 µg/mL) | 6.8 µL/min/mg | – | – | – |
| Nc1nc(-c2ccc(OCC3CCOC3)cc2)cc(=O)[nH]1 (stereo unspecified) | 58 µM (≈ 16.7 µg/mL) | 21 µL/min/mg | – | – | – |
| CC(C)COc1ccc(-c2nc(N)[nH]c(=O)c2C#N)cc1C#N | 14 µM (≈ 4.33 µg/mL) | 4.1 µL/min/mg | 0.1 ×10⁻⁶ cm/s | 30 ×10⁻⁶ cm/s | half-life [6]: 19 h; clearance [7]: 1.8 mL/min/kg; Vdss [8]: 2.5 L/kg; bioavailability [9]: 5.5%; Cmax [10]: 70 nM |

| Structure (SMILES) | solubility [2] | microsomal CLint [3] | Papp A→B [4] | Papp B→A [5] | further results |
| --- | --- | --- | --- | --- | --- |
| CC(C)COc1ccc(-c2nc(N)[nH]c(=O)c2Cl)cc1C#N | – | 16 µL/min/mg | – | – | – |
| CNc1nc(-c2ccc(OCC(C)C)c(C#N)c2)c(C#N)c(=O)[nH]1 | 37 µM (≈ 12 µg/mL) | 3.6 µL/min/mg | – | – | – |
| N#Cc1cc(-c2nc(N)[nH]c(=O)c2Cl)ccc1OCCCCO | 93 µM (≈ 31.1 µg/mL) | 1.7 µL/min/mg | 0.2 ×10⁻⁶ cm/s | 25.6 ×10⁻⁶ cm/s | – |
| N#Cc1cc(-c2nc(N)[nH]c(=O)c2C#N)ccc1OCC1CC1 | 45 µM (≈ 13.8 µg/mL) | 1.7 µL/min/mg | 0.1 ×10⁻⁶ cm/s | 31 ×10⁻⁶ cm/s | – |
| N#Cc1c(-c2ccc(OCC3CCOC3)c(OC(F)(F)F)c2)nc(N)[nH]c1=O (stereo unspecified) | 86 µM (≈ 34.1 µg/mL) | 21 µL/min/mg | 0.1 ×10⁻⁶ cm/s | 29 ×10⁻⁶ cm/s | – |
| CC(C)(C)COc1ccc(-c2nc(N)[nH]c(=O)c2C#N)cc1OC(F)(F)F | 6 µM (≈ 2.29 µg/mL) | 36 µL/min/mg | 0.4 ×10⁻⁶ cm/s | 4.1 ×10⁻⁶ cm/s | – |
| CC(C)COc1ccc(-c2nc(N)[nH]c(=O)c2C#N)cc1C(F)(F)F | 1.2 µM (≈ 0.423 µg/mL) | 8.5 µL/min/mg | 1.7 ×10⁻⁶ cm/s | 23 ×10⁻⁶ cm/s | – |
| CC(=O)Nc1ccc(-c2cc(=O)[nH]c(N)n2)cc1 | – | – | – | – | CLH [15]: 2.7 µL/min/1e6 cells |
| c1ccc(-c2nn3c(-c4cnccn4)nnc3s2)cc1 | – | – | – | – | IC50 [16]: 79.4 nM |
| O=c1[nH]ccc2nc(-c3cccc(C(F)(F)F)c3)cn12 | – | – | – | – | inhibition (INH) [17]: Active; IC50 [18]: 398 nM |
| CC(=O)Nc1nc(-c2ccccc2)cc(=O)[nH]1 | – | – | – | – | IC50 [1]: > 100000 nM |
| CS(=O)(=O)Nc1nc(-c2ccccc2)cc(=O)[nH]1 | – | – | – | – | IC50 [1]: > 100000 nM |
| Cn1c(N)nc(-c2ccccc2)cc1=O | – | – | – | – | IC50 [1]: > 100000 nM |
| Oc1ncnc2[nH]ncc12 [ALLOPURINOL] | – | – | – | – | Activity [19]: 87%; Activity [20]: 94% |
| Nc1nc(-c2ccccc2)c(Br)c(=O)[nH]1 [BROPIRIMINE] | – | – | – | – | IC50 [1]: 1000 nM |
| Cc1nc(-c2ccc(OCC(C)C)c(C#N)c2)sc1C(=O)O [FEBUXOSTAT] | – | – | – | – | concentration at 2 h [11]: 8700 nM; Activity [12]: 75%; Activity [13]: 78%; IC50 [1]: 1.26 nM; IC50 [14]: 3.98 nM |
